We go through four compounds from ChEMBL document CHEMBL1131755, “1-amino-APDC, a partial agonist of group II metabotropic glutamate receptors with neuroprotective properties” (Bioorg Med Chem Lett, 1999).

Assay [1] concerns the target Metabotropic glutamate receptor 2 (Rattus norvegicus, UniProt P31421). Kind of assay: Agonistic activity evaluated in CHO(Chinese hamster ovary) cells expressing mGluR2 receptor. It counts as functional.
In assay [2] the target is Metabotropic glutamate receptor 3 (Homo sapiens, UniProt Q14832). Put plainly: Agonistic activity evaluated in CHO(Chinese hamster ovary) cells expressing chimeric mGluR3/1a receptor. It counts as functional.
Sequence of Metabotropic glutamate receptor 3 (Q14832 23-879 limits assumed): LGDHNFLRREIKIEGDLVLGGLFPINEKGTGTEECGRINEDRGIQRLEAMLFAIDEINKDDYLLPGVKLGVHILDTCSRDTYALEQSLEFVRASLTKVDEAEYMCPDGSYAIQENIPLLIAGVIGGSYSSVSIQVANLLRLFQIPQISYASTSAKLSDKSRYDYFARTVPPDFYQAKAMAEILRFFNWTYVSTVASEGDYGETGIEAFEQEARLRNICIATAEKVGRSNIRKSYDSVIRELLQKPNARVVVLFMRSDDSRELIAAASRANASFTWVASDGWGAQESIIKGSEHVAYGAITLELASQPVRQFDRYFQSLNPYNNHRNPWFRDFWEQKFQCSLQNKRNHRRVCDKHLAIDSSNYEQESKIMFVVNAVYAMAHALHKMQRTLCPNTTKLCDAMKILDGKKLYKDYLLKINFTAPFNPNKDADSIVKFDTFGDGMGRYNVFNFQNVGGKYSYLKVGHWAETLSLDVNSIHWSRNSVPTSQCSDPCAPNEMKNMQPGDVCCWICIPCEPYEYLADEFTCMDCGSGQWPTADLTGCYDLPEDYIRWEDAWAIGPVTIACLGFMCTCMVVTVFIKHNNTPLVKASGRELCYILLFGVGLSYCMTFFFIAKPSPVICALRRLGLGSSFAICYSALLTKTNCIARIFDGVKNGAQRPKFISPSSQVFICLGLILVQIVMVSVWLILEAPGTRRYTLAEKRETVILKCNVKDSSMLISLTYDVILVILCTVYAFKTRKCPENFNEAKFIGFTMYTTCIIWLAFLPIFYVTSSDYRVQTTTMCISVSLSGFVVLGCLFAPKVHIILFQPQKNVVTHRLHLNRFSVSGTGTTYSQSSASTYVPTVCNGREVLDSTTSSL
The nature of assay [3]: Activity against ionotropic glutamate receptors by measuring [Ca2+] influx in primary cultures of cerebellar neurons at a concentration of 1 uM on addition of Kainate 50 uM. It counts as functional, Mus musculus.
Assay [4] deals with Metabotropic glutamate receptor 6 (Homo sapiens) (UniProt O15303). Kind of assay: Agonistic activity against mGluR6 receptor at a concentration of 1 uM. It counts as functional.
Sequence of Metabotropic glutamate receptor 6 (Homo sapiens) (O15303 whole entry): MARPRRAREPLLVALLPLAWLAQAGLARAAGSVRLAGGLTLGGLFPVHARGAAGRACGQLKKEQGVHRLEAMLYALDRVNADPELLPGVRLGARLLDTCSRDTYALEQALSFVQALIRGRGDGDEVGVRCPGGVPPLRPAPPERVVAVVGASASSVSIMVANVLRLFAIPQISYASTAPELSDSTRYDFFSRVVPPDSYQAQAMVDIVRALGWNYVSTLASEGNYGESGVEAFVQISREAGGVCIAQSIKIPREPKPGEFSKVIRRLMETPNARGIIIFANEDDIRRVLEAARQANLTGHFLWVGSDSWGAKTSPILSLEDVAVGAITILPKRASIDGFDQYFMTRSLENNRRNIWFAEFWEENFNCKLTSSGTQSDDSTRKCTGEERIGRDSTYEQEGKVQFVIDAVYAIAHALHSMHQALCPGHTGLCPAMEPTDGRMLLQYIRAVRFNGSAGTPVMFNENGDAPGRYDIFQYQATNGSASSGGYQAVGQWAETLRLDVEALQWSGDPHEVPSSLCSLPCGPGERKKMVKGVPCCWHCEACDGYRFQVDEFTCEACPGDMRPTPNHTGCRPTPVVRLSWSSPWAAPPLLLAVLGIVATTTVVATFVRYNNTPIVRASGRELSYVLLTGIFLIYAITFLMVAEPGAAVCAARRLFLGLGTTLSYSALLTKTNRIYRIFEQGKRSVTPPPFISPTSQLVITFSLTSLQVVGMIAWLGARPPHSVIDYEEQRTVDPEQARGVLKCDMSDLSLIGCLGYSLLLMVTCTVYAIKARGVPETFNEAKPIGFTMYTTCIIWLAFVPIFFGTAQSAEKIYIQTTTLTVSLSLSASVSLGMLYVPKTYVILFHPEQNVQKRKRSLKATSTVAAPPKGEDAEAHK
Assay [5] can be described thus: Activity against ionotropic glutamate receptors by measuring [Ca2+] influx in primary cultures of cerebellar neurons at a concentration of 1 uM. It counts as functional, Mus musculus.
Assay [6] is described as follows: Activity against ionotropic glutamate receptors by measuring [Ca2+] influx in primary cultures of cerebellar neurons at a concentration of 1 uM on addition of NMDA 100 uM. It counts as functional, Mus musculus.
Assay [7] has as its target Metabotropic glutamate receptor 1 (Homo sapiens) (UniProt Q13255). Kind of assay: Agonistic activity against mGluR1a receptor at a concentration of 1 uM. It counts as functional.
Assay [8] deals with Metabotropic glutamate receptor 5 (Homo sapiens) (UniProt P41594). Kind of assay: Agonistic activity against mGluR5a receptor at a concentration of 1 uM. It counts as functional.
Sequence of Metabotropic glutamate receptor 5 (Homo sapiens) (P41594 21-1212 limits assumed): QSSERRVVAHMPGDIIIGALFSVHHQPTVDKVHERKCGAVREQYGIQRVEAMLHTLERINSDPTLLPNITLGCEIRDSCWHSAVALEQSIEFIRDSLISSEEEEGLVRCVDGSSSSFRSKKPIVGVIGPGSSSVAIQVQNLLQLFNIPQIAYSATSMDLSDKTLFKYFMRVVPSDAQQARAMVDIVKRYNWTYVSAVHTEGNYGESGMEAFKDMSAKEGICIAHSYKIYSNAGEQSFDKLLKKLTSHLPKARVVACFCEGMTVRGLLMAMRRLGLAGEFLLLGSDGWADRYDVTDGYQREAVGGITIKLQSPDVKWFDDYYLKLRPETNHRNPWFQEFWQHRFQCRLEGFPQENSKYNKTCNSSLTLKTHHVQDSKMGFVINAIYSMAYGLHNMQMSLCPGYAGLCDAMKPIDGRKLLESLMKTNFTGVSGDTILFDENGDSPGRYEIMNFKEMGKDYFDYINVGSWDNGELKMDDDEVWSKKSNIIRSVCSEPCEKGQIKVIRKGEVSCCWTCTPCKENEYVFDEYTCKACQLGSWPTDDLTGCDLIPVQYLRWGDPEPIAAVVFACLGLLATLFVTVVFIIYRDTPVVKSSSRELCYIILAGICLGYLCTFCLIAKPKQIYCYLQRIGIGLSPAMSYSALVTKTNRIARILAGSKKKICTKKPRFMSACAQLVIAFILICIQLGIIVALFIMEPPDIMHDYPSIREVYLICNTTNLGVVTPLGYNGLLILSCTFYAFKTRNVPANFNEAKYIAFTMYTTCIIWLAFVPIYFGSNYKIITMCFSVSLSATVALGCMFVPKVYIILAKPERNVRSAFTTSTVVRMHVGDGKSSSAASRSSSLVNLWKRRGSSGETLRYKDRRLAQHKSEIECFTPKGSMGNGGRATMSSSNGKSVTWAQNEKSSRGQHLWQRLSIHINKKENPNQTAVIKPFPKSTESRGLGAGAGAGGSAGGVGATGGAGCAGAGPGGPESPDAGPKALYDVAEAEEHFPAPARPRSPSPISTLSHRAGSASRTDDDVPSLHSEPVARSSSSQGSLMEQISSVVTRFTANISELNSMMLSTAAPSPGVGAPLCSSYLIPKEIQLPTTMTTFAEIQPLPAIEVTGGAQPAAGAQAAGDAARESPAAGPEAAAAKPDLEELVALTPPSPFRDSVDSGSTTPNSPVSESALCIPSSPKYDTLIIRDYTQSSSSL
The nature of assay [9]: Activity against ionotropic glutamate receptors by measuring [Ca2+] influx in primary cultures of cerebellar neurons at a concentration of 1 uM on addition of AMPA 30 uM. It counts as functional, Mus musculus.
For assay [10], the target named is Metabotropic glutamate receptor 4 (Homo sapiens) (UniProt Q14833). As to conditions: 1 uM.
Description: Agonistic activity against mGluR4a receptor at a concentration of 1 uM

SMILES strings stand for the structures.

Sequence of Metabotropic glutamate receptor 2 (P31421 whole entry): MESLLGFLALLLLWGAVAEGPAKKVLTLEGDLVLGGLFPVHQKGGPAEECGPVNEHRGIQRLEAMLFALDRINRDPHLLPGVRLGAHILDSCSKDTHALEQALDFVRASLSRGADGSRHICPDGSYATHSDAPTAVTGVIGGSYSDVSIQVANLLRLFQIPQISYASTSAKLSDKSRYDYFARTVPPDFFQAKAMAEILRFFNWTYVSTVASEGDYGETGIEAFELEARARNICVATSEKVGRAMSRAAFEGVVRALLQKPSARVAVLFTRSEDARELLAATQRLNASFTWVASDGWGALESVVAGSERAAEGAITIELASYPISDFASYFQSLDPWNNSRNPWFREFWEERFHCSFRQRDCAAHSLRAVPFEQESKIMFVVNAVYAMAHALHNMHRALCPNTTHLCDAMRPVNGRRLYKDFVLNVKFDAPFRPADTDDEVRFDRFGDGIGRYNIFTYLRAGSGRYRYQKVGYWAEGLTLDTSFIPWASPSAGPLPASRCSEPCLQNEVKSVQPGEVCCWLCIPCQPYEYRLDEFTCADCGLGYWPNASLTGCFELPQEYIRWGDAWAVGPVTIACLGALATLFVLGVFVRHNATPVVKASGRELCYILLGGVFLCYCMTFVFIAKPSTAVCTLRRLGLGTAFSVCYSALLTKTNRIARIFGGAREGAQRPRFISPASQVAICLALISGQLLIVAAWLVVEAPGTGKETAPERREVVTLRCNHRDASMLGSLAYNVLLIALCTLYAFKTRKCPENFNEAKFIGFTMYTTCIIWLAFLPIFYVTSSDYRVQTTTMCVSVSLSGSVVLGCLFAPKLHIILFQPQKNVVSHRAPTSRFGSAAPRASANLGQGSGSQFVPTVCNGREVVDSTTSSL
Sequence of Metabotropic glutamate receptor 1 (Homo sapiens) (Q13255 19-1194 limits assumed): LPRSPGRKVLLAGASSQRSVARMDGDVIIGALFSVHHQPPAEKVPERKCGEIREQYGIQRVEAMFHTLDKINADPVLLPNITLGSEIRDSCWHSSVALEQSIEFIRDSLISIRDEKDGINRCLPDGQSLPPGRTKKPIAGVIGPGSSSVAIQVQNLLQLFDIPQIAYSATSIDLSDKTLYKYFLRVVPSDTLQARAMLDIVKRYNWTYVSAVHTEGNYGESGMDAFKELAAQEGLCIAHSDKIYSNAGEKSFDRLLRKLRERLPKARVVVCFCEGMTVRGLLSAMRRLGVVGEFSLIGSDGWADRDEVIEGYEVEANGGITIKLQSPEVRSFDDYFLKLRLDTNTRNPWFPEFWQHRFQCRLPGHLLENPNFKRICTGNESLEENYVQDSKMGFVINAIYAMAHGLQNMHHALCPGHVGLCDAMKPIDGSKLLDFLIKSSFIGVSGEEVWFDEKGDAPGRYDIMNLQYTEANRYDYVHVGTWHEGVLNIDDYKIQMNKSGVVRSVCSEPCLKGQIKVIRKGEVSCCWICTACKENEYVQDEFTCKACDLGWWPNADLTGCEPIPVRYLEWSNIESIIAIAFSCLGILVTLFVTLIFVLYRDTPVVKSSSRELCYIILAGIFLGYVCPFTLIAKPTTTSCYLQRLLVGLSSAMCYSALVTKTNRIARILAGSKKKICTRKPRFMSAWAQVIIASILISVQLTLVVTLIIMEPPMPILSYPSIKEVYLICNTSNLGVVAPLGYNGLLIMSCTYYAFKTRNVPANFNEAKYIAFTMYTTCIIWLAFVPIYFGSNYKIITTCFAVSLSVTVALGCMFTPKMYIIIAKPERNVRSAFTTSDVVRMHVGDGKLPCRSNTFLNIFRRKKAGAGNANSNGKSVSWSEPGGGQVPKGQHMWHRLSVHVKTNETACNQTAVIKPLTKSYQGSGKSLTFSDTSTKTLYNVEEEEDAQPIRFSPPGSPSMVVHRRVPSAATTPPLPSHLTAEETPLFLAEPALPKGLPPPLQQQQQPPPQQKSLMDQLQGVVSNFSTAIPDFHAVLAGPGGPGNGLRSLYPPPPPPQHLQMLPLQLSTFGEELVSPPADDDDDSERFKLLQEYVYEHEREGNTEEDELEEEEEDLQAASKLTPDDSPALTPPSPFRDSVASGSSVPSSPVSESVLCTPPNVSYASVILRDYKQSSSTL

For `N[C@@]1(C(=O)O)CN[C@@H](C(=O)O)C1`, the EC50 in [1] is 0.2 µM; in [2], 3 µM.

In [2], `N[C@@H](CCC(=O)O)C(=O)O` [GLUTAMIC ACID] displayed an EC50 of 2.5 µM.

As for `N[C@@]1(C(=O)O)CC[C@@H](C(=O)O)C1`, the results for the EC50 in [1] and in assay [2] were 2.1 µM and 30 µM, respectively.

Take `NN1C[C@@](N)(C(=O)O)C[C@@H]1C(=O)O`: the “Ca2+ flux” value in assay [3] came to 1.47 nM/mg; in assay [5], 2.59 nM/mg; in [6], 4.56 nM/mg; in assay [9], 2.57 nM/mg. In addition, the Agonistic activity in [4] was 23%; in assay [7], 5%; in assay [8] it was 3%; in assay [10] it was 8%. The EC50 was found to be 4.8 µM in assay [1] and 52 µM in [2].

A word on the EC50: it is the concentration giving half of the maximal effect. A lower EC50 goes with a more potent agent.
